In PubChem BioAssay (NCI) one finds GI50 and TGI data, which are given here for ten compounds.

What all share (assay): inhibition of tumour cell growth, NCI panel, 48 h
The subject of experiment [1] is LOX IMVI melanoma.
Experiment [2] relates to CCRF-CEM leukemia.
The test system of experiment [3] is OVCAR-3 ovarian.
Experiment [4] deals with KM12 colon.
For experiment [5], the system named is UACC-62 melanoma.
For experiment [6], the system named is HCT-116 colon.
The subject of experiment [7] is OVCAR-5 ovarian.
Experiment [8] concerns M14 melanoma.
Experiment [9] relates to A549 NSCLC.
In experiment [10] the test system is NCI-H522 lung.

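Five compound concentrations were applied to cells in 96-well plates for 48 hours; endpoints were derived by simple linear interpolation of the resulting dose-response curve. GI50 is the concentration that inhibits growth by half. TGI marks complete inhibition of growth.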

For `CC1(C)CCc2c(c3c(c4c(=O)c(O)c(-c5ccc(O)cc5)oc24)OC(C)(C)CC3)O1`, the GI50 in [1] is 90.5 µM; in experiment [2], more than 100 µM; in experiment [3] it was 49.9 µM; in experiment [4], more than 100 µM; in [5], more than 100 µM; in experiment [6], 57.6 µM. The GI50 in [7], in [8], in experiment [9] and in [10] was more than 100 µM throughout. Further, the TGI in [1], in experiment [2], in experiment [3], in [4], in experiment [5] and in experiment [6] was more than 100 µM throughout. Moreover, the TGI in experiment [7], in [8], in experiment [9] and in experiment [10] was more than 100 µM throughout.

As to `CCC(CO)Nc1nc2ccc(Cl)cc2c2ccccc12` (configuration not stated), the GI50 in experiment [1] was 6.17 µM; in experiment [2], 4.24 µM; in experiment [3], 12.2 µM; in experiment [4] it was 5.3 µM; in experiment [5] it was 4.71 µM; in experiment [6], 10.8 µM. The GI50 in [7] was 5.4 µM; in experiment [8] it was 12.8 µM; in experiment [9], 6.05 µM; in experiment [10], 8.42 µM. Further, the TGI came out at 19.4 µM in [1]; 17.4 µM in [2]; 24.7 µM in [3]; 17.1 µM in [4]; 17 µM in [5]; 22.7 µM in experiment [6]. In addition, the TGI in [7] turned out to be 19.7 µM; in experiment [8], 25.6 µM; in [9] it was 20.4 µM; in [10] it was 21.5 µM.

With `COc1cc(Cc2cnc(/N=C3\C(=O)N(CN4CCN(c5c(F)cc6c(=O)c(C(=O)O)cn(C7CC7)c6c5OC)CC4C)c4ccc(F)cc43)nc2N)cc(OC)c1OC` (configuration not stated), the GI50 in [1] was 2.38 µM; in experiment [2] it was 1.3 µM; in experiment [3] it was 5.87 µM; in [4], 13.7 µM; in experiment [5], 12.6 µM; in experiment [6] it was 7.78 µM. Besides, the GI50 in experiment [7] was 10.6 µM; in experiment [8], 10.3 µM; in [9], 27 µM; in experiment [10], 63.5 µM. Moreover, the TGI was 4.74 µM in experiment [1]; 4.26 µM in experiment [2]; 22.1 µM in experiment [3]; 35.9 µM in experiment [4]; 26 µM in [5]; 20.6 µM in [6]. Besides, the TGI was 22.5 µM in experiment [7], 22 µM in [8], more than 100 µM in [9] and more than 100 µM in experiment [10].

`O=C(O)c1ccccc1[Se][Se]c1ccccc1C(=O)O`: the TGI in experiment [1] was 76.1 µM; in experiment [2] it was more than 100 µM; in experiment [3] it was more than 100 µM; in experiment [4], 89.1 µM; in experiment [5], 82.8 µM; in experiment [6], more than 100 µM. In addition, the TGI in experiment [8], in experiment [9] and in experiment [10] was more than 100 µM in each case.

With `CC(C)=CC(=O)C1c2cccc(O)c2C(=O)c2c(O)cc(C)cc21` (configuration not stated), the TGI is 3.74 µM in [1]; more than 100 µM in experiment [2]; 3.7 µM in [3]; 3.17 µM in [4]; 6.39 µM in experiment [6]; 5.13 µM in experiment [7]. The TGI was found to be 10.1 µM in [8], 4.31 µM in experiment [9] and 3.85 µM in [10].

On to `COc1cc(-c2nn(-c3ccc(NC(=O)c4ccc(Cl)c(C(F)(F)F)c4)cc3)cc2-c2ccncc2)ccc1Cl`, for which the GI50 in experiment [1] is 1.55 µM; in [2], 2.5 µM; in [3], 2.98 µM; in experiment [4] it was 1.5 µM; in [5] it was 2.2 µM; in experiment [6], 2.81 µM. The GI50 is 4.58 µM in experiment [7], 2.51 µM in experiment [8] and 4.94 µM in experiment [9]. Besides, the TGI in [1] is 3.88 µM; in experiment [2], more than 100 µM; in experiment [3] it was more than 30.9 µM; in [4], 4.84 µM; in experiment [5], 5.44 µM; in [6] it was more than 58.2 µM. For the same compound, the TGI in experiment [7] was more than 39.6 µM; in experiment [8], 8.26 µM; in [9], more than 100 µM.

As to `N#CC1C(C#N)C2(c3ccccc3)C(c3ccccc3)=NN(c3ccccc3)CC12` (configuration not stated), the TGI in experiment [1], in experiment [2], in [3], in [4], in experiment [5] and in [6] was more than 100 µM in each case. Moreover, the TGI in [7], in experiment [8] and in experiment [9] was more than 100 µM in each case.

Take `COc1cc2c(cc1OC)-c1c3cc(O)ccc3nn[n+]1CC2`: the TGI in experiment [1], in experiment [2], in [3], in experiment [4], in experiment [5] and in experiment [6] was more than 100 µM in each case. The TGI in experiment [8], in experiment [9] and in experiment [10] was more than 100 µM in each case.

On to `O=C(N/C(=C\c1ccc(/C=C(\NC(=O)c2ccccc2)c2nc3cc([N+](=O)[O-])ccc3[nH]2)cc1)c1nc2cc([N+](=O)[O-])ccc2[nH]1)c1ccccc1`, for which the TGI in experiment [1], in [2], in [3], in experiment [5], in experiment [6] and in experiment [7] was more than 100 µM throughout. Besides, the results for the TGI in [8], in experiment [9] and in experiment [10] were more than 100 µM, more than 100 µM and 50 µM, respectively.

`CC1=C(C(=O)NCc2ccccc2)C(/C=C/c2ccccc2)C(C(=O)NCc2ccccc2)=C(C)N1`: the TGI in experiment [1], in experiment [2], in experiment [3], in experiment [4], in experiment [5] and in experiment [6] was more than 100 µM each time. The TGI in experiment [7], in [8] and in experiment [9] was more than 100 µM each time.
